Tested on: human monocytic cell line U937
Assay: Human U937 cellular necroptosis assay
Format: cell-based
Conditions: U-937; U937 cells stimulated with 25 ng/mL human TNFalpha and 25 μM z-VAD-FMK; 22 hr; viability by Cell Titer-Glo 2.0; read-out: hU937 IC50
Procedure, shortened: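 U937 cells (5000/well) driven to necroptosis by 25 ng/mL human TNFalpha plus 25 μM z-VAD-FMK alongside 1:3-diluted compounds, 22 hr at 37° C, 5% CO2. Viability by CellTiter-Glo luminescence; IC50 from four-parameter logistic fit.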

| SMILES | IC50 [nM] |
| --- | --- |
| Cc1cnc(C(=O)N[C@H]2COc3cc(Cl)cnc3N(C)C2=O)nc1C1CCC(F)(F)CO1 (stereo partly drawn) [Example 158, N-((S)-8-chloro-5-methyl-4-oxo-2,3,4,5-tetrahydro-pyrido[3,2-b][1,4]oxazepin-3-yl)-4-(5,5-difluorotetrahydro-2H-pyran-2-yl)-5-methylpyrimidine-2-carboxamide] | 149 |
| Cc1cnc(C(=O)N[C@H]2COc3cccnc3N(C)C2=O)nc1-c1cccc(F)c1F [Example 59, (S)-4-(2,3-difluorophenyl)-5-methyl-N-(5-methyl-4-oxo-2,3,4,5-tetrahydropyrido[3,2-b]-[1,4]oxazepin-3-yl)pyrimidine-2-carboxamide] | 13.9 |
| Cc1cnc(C(=O)N[C@H]2COc3cccnc3N(C)C2=O)nc1-c1ccccc1F [Example 45, (S)-4-(2-fluorophenyl)-5-methyl-N-(5-methyl-4-oxo-2,3,4,5-tetrahydropyrido[3,2-b][1,4]oxazepin-3-yl)pyrimidine-2-carboxamide] | 10 |
| Cc1cnc(C(=O)N[C@H]2COc3cc(C#N)ccc3N(C)C2=O)nc1-c1ccc(F)cc1 [Example 136, (S)-N-(8-cyano-5-methyl-4-oxo-2,3,4,5-tetrahydrobenzo[b]-[1,4]oxazepin-3-yl)-4-(4-fluorophenyl)-5-methylpyrimidine-2-carboxamide] | 14.3 |
| CN1C(=O)[C@@H](NC(=O)c2ncc(Cl)c(-c3ccc(Cl)cc3)n2)COc2cc(Cl)cnc21 [Example 103, (S)-5-chloro-N-(8-chloro-5-methyl-4-oxo-2,3,4,5-tetrahydropyrido[3,2-b]-[1,4]oxazepin-3-yl)-4-(4-chlorophenyl)pyrimidine-2-carboxamide] | 6.69 |
| Cc1cnc(C(=O)N[C@H]2COc3ccc(Br)cc3N(C)C2=O)nc1-c1ccccc1 [Example 22, (S)-N-(7-bromo-5-methyl-4-oxo-2,3,4,5-tetrahydro-benzo[b][1,4]oxazepin-3-yl)-5-methyl-4-phenylpyrimidine-2-carboxamide] | 12.1 |
| Cc1cnc(C(=O)N[C@H]2COc3cc(C#N)ccc3N(C)C2=O)nc1N1CC(F)(F)C1 [Example 32, (S)-N-(8-cyano-5-methyl-4-oxo-2,3,4,5-tetrahydro-benzo[b][1,4]oxazepin-3-yl)-4-(3,3-difluoroazetidin-1-yl)-5-methylpyrimidine-2-carboxamide] | 1120 |
| Cc1ccc(-c2nc(C(=O)N[C@H]3COc4cc(F)cnc4N(C)C3=O)ncc2Cl)cc1F [Example 78, (S)-5-chloro-4-(3-fluoro-4-methylphenyl)-N-(8-fluoro-5-methyl-4-oxo-2,3,4,5-tetrahydropyrido[3,2-b]-[1,4]oxazepin-3-yl)pyrimidine-2-carboxamide] | 8.3 |
| CN1C(=O)[C@@H](NC(=O)c2ncc(Cl)c(-c3ccccc3Cl)n2)COc2cc(F)cnc21 [Example 80, (S)-5-chloro-4-(2-chlorophenyl)-N-(8-fluoro-5-methyl-4-oxo-2,3,4,5-tetrahydropyrido[3,2-b]-[1,4]oxazepin-3-yl)pyrimidine-2-carboxamide] | 15.2 |
| Cc1cc(-c2nc(C(=O)N[C@H]3COc4cc(F)cnc4N(C)C3=O)ncc2Cl)ccc1F [Example 79, (S)-5-chloro-4-(4-fluoro-3-methylphenyl)-N-(8-fluoro-5-methyl-4-oxo-2,3,4,5-tetrahydropyrido[3,2-b]-[1,4]oxazepin-3-yl)pyrimidine-2-carboxamide] | 18.9 |
| Cc1cnc(C(=O)N[C@H]2COc3cccnc3N(C)C2=O)nc1-c1ccccc1 [Example 6, (S)-5-methyl-N-(5-methyl-4-oxo-2,3,4,5-tetrahydropyrido[3,2-b][1,4]oxazepin-3-yl)-4-phenylpyrimidine-2-carboxamide] | 12.5 |
| Cc1cnc(C(=O)N[C@H]2COc3ccc(CN4CCn5ncnc5C4)cc3N(C)C2=O)nc1-c1ccccc1 [Example 39, (S)-N-(7-((5,6-dihydro-[1,2,4]triazolo[1,5-a]pyrazin-7(8H)-yl)methyl)-5-methyl-4-oxo-2,3,4,5-tetrahydro-benzo[b][1,4]oxazepin-3-yl)-5-methyl-4-phenylpyrimidine-2-carboxamide] | 12.9 |
| CN1C(=O)[C@@H](NC(=O)c2ncc(Cl)c(-c3ccc(F)cc3)n2)COc2cccnc21 [Example 49, (S)-5-chloro-4-(4-fluorophenyl)-N-(5-methyl-4-oxo-2,3,4,5-tetrahydro-pyrido[3,2-b][1,4]oxazepin-3-yl)pyrimidine-2-carboxamide] | 8.35 |
| Cc1ccc(C(=O)Nc2cccc(Cl)c2F)nc1-c1ccccc1 [Example 34, N-(3-chloro-2-fluorophenyl)-5-methyl-6-phenylpicolinamide] | ≥ 10000 |
| Cc1cc(F)ccc1-c1nc(C(=O)N[C@H]2COc3cc(F)cnc3N(C)C2=O)ncc1F [Example 67, (S)-5-fluoro-4-(4-fluoro-2-methylphenyl)-N-(8-fluoro-5-methyl-4-oxo-2,3,4,5-tetrahydropyrido[3,2-b]-[1,4]oxazepin-3-yl)pyrimidine-2-carboxamide] | 24.7 |
| CN1C(=O)[C@@H](NC(=O)c2ncc(Cl)c(-c3ccc(F)cc3)n2)COc2cc(F)cnc21 [Example 71, (S)-5-chloro-N-(8-fluoro-5-methyl-4-oxo-2,3,4,5-tetrahydropyrido[3,2-b]-[1,4]oxazepin-3-yl)-4-(4-fluorophenyl)pyrimidine-2-carboxamide] | 8.83 |
| Cc1cnc(C(=O)N[C@H]2COc3ccc(Oc4cnn(C)c4)cc3N(C)C2=O)nc1-c1ccc(C#N)cc1 [Example 160, (S)-4-(4-cyanophenyl)-5-methyl-N-(5-methyl-7-((1-methyl-1H-pyrazol-4-yl)oxy)-4-oxo-2,3,4,5-tetrahydrobenzo[b]-[1,4]oxazepin-3-yl)pyrimidine-2-carboxamide] | 24 |
| Cc1ccc(-c2nc(C(=O)N[C@H]3COc4cc(C#N)ccc4N(C)C3=O)ncc2Cl)cc1F [Example 132, (S)-5-chloro-N-(8-cyano-5-methyl-4-oxo-2,3,4,5-tetrahydrobenzo[b]-[1,4]oxazepin-3-yl)-4-(3-fluoro-4-methylphenyl)pyrimidine-2-carboxamide] | 20.2 |
| Cc1cnc(C(=O)N[C@H]2COc3cc(C#N)ccc3N(C)C2=O)nc1-c1cccc(F)c1 [Example 135, (S)-N-(8-cyano-5-methyl-4-oxo-2,3,4,5-tetrahydrobenzo[b]-[1,4]oxazepin-3-yl)-4-(3-fluorophenyl)-5-methylpyrimidine-2-carboxamide] | 17.6 |
| CN1C(=O)[C@@H](NC(=O)c2ncc(Cl)c(-c3ccc(F)cc3F)n2)COc2ccc(-c3cnn(C)c3)cc21 [Example 150, (S)-5-chloro-4-(2,4-difluorophenyl)-N-(5-methyl-7-(1-methyl-1H-pyrazol-4-yl)-4-oxo-2,3,4,5-tetrahydrobenzo[b]-[1,4]oxazepin-3-yl)pyrimidine-2-carboxamide] | 14.2 |
| Cc1ccc(-c2nc(C(=O)N[C@H]3COc4cccnc4N(C)C3=O)ncc2C)c(F)c1 [Example 61, (S)-4-(2-fluoro-4-methylphenyl)-5-methyl-N-(5-methyl-4-oxo-2,3,4,5-tetrahydropyrido[3,2-b]-[1,4]oxazepin-3-yl)pyrimidine-2-carboxamide] | 16.1 |
| CN1C(=O)[C@@H](NC(=O)c2ncc(Cl)c(-c3ccn4cnnc4c3)n2)COc2cc(Cl)cnc21 [Example 115, (S)-4-([1,2,4]triazolo[4,3-a]pyridin-7-yl)-5-chloro-N-(8-chloro-5-methyl-4-oxo-2,3,4,5-tetrahydropyrido[3,2-b]-[1,4]oxazepin-3-yl)pyrimidine-2-carboxamide] | 330 |
| CN1C(=O)[C@@H](NC(=O)c2ncc(Cl)c(-c3ncccc3F)n2)COc2cc(Cl)cnc21 [Example 108, (S)-5-chloro-N-(8-chloro-5-methyl-4-oxo-2,3,4,5-tetrahydropyrido[3,2-b]-[1,4]oxazepin-3-yl)-4-(3-fluoropyridin-2-yl)pyrimidine-2-carboxamide] | 121 |
| Cc1cc(F)ccc1-c1ccnc(C(=O)N[C@H]2COc3cc(F)cnc3N(C)C2=O)n1 [Example 63, (S)-4-(4-fluoro-2-methylphenyl)-N-(8-fluoro-5-methyl-4-oxo-2,3,4,5-tetrahydropyrido[3,2-b]-[1,4]oxazepin-3-yl)pyrimidine-2-carboxamide] | 117 |
| CN1C(=O)[C@@H](NC(=O)c2ncc(Cl)c(-c3cc(F)ccc3F)n2)COc2cc(C#N)ccc21 [Example 130, (S)-5-chloro-N-(8-cyano-5-methyl-4-oxo-2,3,4,5-tetrahydrobenzo[b]-[1,4]oxazepin-3-yl)-4-(2,5-difluorophenyl)pyrimidine-2-carboxamide] | 16.1 |
| CN1C(=O)[C@@H](NC(=O)c2ncc(Cl)c(-c3cccc(F)c3)n2)COc2cc(F)cnc21 [Example 70, (S)-5-chloro-N-(8-fluoro-5-methyl-4-oxo-2,3,4,5-tetrahydropyrido[3,2-b]-[1,4]oxazepin-3-yl)-4-(3-fluorophenyl)pyrimidine-2-carboxamide] | 9.94 |
| Cc1cnc(C(=O)N[C@H]2COc3cccnc3N(C)C2=O)nc1-c1ccc(F)c(F)c1 [Example 21, (S)-4-(3,4-difluorophenyl)-5-methyl-N-(5-methyl-4-oxo-2,3,4,5-tetrahydropyrido[3,2-b][1,4]oxazepin-3-yl)pyrimidine-2-carboxamide] | 14.8 |
| Cc1ccc(C(=O)N[C@H]2COc3cc(C#N)ccc3N(C)C2=O)nc1-c1ccccc1 [Example 40, (S)-N-(8-cyano-5-methyl-4-oxo-2,3,4,5-tetrahydro-benzo[b][1,4]oxazepin-3-yl)-5-methyl-6-phenylpicolinamide] | 1570 |
| Cc1cnc(C(=O)N[C@H]2COc3ccc(S(C)(=O)=O)cc3N(C)C2=O)nc1-c1ccccc1F [Example 171, (S)-4-(2-fluorophenyl)-5-methyl-N-(5-methyl-7-(methylsulfonyl)-4-oxo-2,3,4,5-tetrahydrobenzo[b][1,4]oxazepin-3-yl)pyrimidine-2-carboxamide] | 120 |
